Series [1] concerns motility of the gastrointestinal (GI) tract. The series can be described thus: Animal models of gastrointestinal motility. The class given is in vivo.
Series [2] concerns the target T1, human mu opioid receptor (Homo sapiens, UniProt P35372). Put plainly: Radioligand binding assay on human mu opioid receptor ([3H]-Diprenorphine displacement, CHO-K1 membranes). The conditions noted are these: [3H]-Diprenorphine at 0.5 nM.
Series [3] can be described thus: Dynamic moisture sorption assessment. Type of series: physicochemical. Here is the method: Dynamic moisture sorption (DMS) assessment was performed at 25° C. using a VTI atmospheric microbalance, SGA-100 system (VTI Corp., Hialeah, Fla. 33016). […] A typical DMS analysis consisted of three scans: ambient to 2% relative humidity (RH), 2% RH to 90% RH, 90% RH to 5% RH at a scan rate of 5% RH/step. The mass was measured every two minutes and the RH was changed to the next value (±5% RH) when the mass of the sample was stable to within 0.02% for 5 consecutive points. Representative DMS traces for samples of a crystalline sulfate salt and of a crystalline hydrate of a sulfate salt of compound 1 are shown in FIGS. 3 and 6, respectively.

The nature of series [4]: Solid state stability assessment. The class given is physicochemical. The conditions noted are these: for changes in DSC, TGA, XRPD results after storage: 4 weeks storage at elevated temperature and humidity. Here is the method:
Samples of the sulfate salt of the invention were stored in multiple open glass vials at 20° C. and 60% relative humidity (RH) and at 40° C. and 75% RH. At specific intervals, the contents of a representative vial was removed and analyzed by DSC, TGA, PXRD, and by HPLC for chemical purity. […] The chemical purity of the stored samples by HPLC was unchanged at 99.7%.

Series [5] relates to loperamide-induced delayed gastric emptying. The series can be described thus: Rat gastric emptying assay (reversal of loperamide-induced delayed gastric emptying). Type of series: in vivo. The settings on record: administered orally, loperamide 1 mg/kg s.c. Here is the method:
In this assay the efficacy of test compounds was evaluated in a model of gastrointestinal transit, which evaluates peripheral activity. This study was approved by the Institutional Animal Care and Use Committee at […]. and conformed to the Guide for the Care and Use of Laboratory Animals published by the National Academy of Sciences (©1996). Test compounds were evaluated in the rat gastric emptying assay to determine their ability to reverse loperamide-induced delayed gastric emptying. Rats were fasted up overnight prior to administration of test compounds or vehicle by intravenous, subcutaneous, intramuscular or oral routes of administration at doses ranging from 0.001 to about 30 milligrams/kilogram (mg/kg). The administration of test compound was followed by subcutaneous administration of loperamide at a dose of 1 mg/kg or vehicle. […] Gastric weight was then determined after removal of the ligatures. Data was analyzed using the GraphPad Prism Software package (GraphPad Software, Inc., San Diego, Calif.). Percent reversal curves were constructed by non-linear regression analysis using the sigmoidal dose response (variable slope) model and best-fit ID50 values were calculated. […]

The target of series [6] is T1, human mu opioid receptor. Put plainly: biochemical. The conditions noted are these: read-out: intrinsic activity (IA).

Consider two molecules from patent US10426766B2, “Crystalline forms of an 8-azabicyclo[3.2.1]octane compound” (THERAVANCE BIOPHARMA R&D IP, LLC, priority 2007, dated 2019).

Molecules are shown by their SMILES. Structures can show the parent of a compound that is named as a salt.

T1 sequence (P35372 whole entry): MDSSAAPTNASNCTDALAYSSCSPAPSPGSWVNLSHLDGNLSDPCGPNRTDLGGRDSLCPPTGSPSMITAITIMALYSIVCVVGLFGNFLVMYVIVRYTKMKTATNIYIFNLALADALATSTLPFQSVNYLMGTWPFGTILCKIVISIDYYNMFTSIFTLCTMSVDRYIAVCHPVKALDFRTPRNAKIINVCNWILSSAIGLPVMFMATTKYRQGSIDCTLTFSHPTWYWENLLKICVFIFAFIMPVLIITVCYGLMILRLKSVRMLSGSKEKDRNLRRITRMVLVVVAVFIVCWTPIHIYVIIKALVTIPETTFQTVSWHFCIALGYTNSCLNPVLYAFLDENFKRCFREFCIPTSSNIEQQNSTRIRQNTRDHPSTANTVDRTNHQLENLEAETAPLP

Regarding `NC(=O)c1cccc(C2CC3CCC(C2)N3CCN(CC2CCCCC2)C(=O)[C@@H](O)CO)c1` (stereo partly drawn) [compound 1, 3-endo-(8-{2-[cyclohexylmethyl-((S)-2,3-dihydroxy-propionyl)amino]ethyl}-8-aza-bicyclo[3.2.1]oct-3-yl)benzamide], the “effect on motility of the gastrointestinal tract” value in series [1] is on record as “increase motility of the gastrointestinal (GI) tract”.
What is called Ki is the equilibrium dissociation constant of an inhibitor or competing ligand from its target. With `NC(=O)c1cccc(C2CC3CCC(C2)N3CCN(CC2CCCCC2)C(=O)[C@@H](O)CO)c1` (stereo partly drawn) [sulfate salt of compound 1, 3-endo-(8-{2-[cyclohexylmethyl-((S)-2,3-dihydroxy-propionyl)amino]ethyl}-8-aza-bicyclo[3.2.1]oct-3-yl)benzamide sulfate], the Ki on human mu opioid receptor [2] was 0.126 nM. For the same molecule, the “weight change/gain on moisture sorption (hygroscopicity)” value in series [3] (2% to 90% relative humidity at room temperature) is “less than 0.3%”. Further, the deliquescence entry in series [3] (up to about 90% relative humidity at room temperature) was “neither the crystalline sulfate salt of the invention nor the hydrate thereof is deliquescent”. The “changes in DSC, TGA, XRPD results after storage” value is listed as “no detectable changes” in series [4] (listed as crystalline sulfate salt of compound 1) and “no detectable change” in series [4] (listed as sulfate salt of the invention). Besides, the “chemical purity of the stored samples by HPLC” value in series [4] (4 weeks storage, open vials, 20° C./60% RH and 40° C./75% RH) was 99.7%. Moreover, the “chemical degradation by HPLC” value in series [4] (storage for 4 weeks at 40° C. and 75% relative humidity) was “no chemical degradation”. Besides, the “ID50, dose required for 50% reversal of the effects of loperamide” value in series [5] was 0.26 mg/kg. For the same molecule, the Emax on human mu opioid receptor [6] is -5%.
